The values that follow come from ChEMBL document CHEMBL1147598, “1-(2-Naphthyl)-1H-pyrazole-5-carboxylamides as potent factor Xa inhibitors. Part 3: Design, synthesis and SAR of orally bioavailable benzamidine-P4 inhibitors” (Bioorg Med Chem Lett, 2004).

Molecules are shown by their SMILES.

The nature of data set [1]: In vitro anticoagulant potency measured in human plasma by thrombin generation (TG) assay expressed as 2 x TG. The format is functional.
Data set [2] is filed under the species Rattus norvegicus. The experiment in a line: (§1) Clearance rate in rat. The format is ADME, organism-based. The conditions noted are these: in vivo.
Another data set concerns the target Serine protease 1 (Homo sapiens, UniProt P07477). The experiment in a line: Inhibitory activity of compound against trypsin.
Data set [3] has as its target T1, Coagulation factor X (Homo sapiens, UniProt P00742). The experiment in a line: Binding affinity for human Coagulation factor X.
Another data set deals with Prothrombin (Homo sapiens, UniProt P00734). The experiment in a line: Inhibitory activity of compound against thrombin.
A short description of data set [4]: Bioavailability in rat. The format is ADME, organism-based. The settings on record: in vivo.
A further data set deals with Kallikrein-1 (Homo sapiens, UniProt P06870). The experiment in a line: Inhibitory activity of compound against kallikrein.
Sequence of Kallikrein-1 (P06870 whole entry): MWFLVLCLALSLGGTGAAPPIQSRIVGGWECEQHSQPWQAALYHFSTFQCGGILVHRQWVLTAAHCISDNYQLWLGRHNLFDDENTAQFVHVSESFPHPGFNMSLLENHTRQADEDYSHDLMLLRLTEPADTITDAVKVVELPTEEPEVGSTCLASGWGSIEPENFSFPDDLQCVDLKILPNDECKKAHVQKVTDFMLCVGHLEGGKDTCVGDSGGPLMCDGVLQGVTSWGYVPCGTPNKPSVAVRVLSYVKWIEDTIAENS
The species named for data set [5] is Rattus norvegicus. Kind of data set: (§2) Half-life determined in rat. The settings on record: in vivo. The format is ADME, organism-based.
The species entered for data set [6] is Rattus norvegicus. The experiment in a line: (§3) Volume of distribution in rat. The conditions noted are these: in vivo. The format is ADME, organism-based.
In data set [7] the target is Tissue-type plasminogen activator (Homo sapiens, UniProt P00750). The experiment in a line: Inhibitory activity of compound against tissue type plasminogen activator.
Sequence of Tissue-type plasminogen activator (P00750 whole entry): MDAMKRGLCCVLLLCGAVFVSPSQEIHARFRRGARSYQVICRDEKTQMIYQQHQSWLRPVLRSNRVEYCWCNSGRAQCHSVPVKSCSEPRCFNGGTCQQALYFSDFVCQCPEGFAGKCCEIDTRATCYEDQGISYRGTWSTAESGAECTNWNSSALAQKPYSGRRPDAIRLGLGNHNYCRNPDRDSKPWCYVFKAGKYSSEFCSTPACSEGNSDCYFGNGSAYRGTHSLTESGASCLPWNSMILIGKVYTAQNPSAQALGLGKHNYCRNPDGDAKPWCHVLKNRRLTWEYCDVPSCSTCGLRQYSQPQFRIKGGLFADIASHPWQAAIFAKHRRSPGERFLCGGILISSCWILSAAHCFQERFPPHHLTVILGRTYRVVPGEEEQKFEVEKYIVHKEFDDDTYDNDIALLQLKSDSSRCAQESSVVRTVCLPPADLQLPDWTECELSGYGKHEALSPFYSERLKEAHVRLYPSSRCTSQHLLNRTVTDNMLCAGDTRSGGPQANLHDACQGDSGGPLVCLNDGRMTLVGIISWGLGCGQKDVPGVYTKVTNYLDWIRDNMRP
Data set [8] concerns the target Plasminogen (Homo sapiens) (UniProt P00747). Kind of data set: Inhibitory activity of compound against plasmin.
Data set [9] deals with Vitamin K-dependent protein C (Homo sapiens, UniProt P04070). The experiment in a line: Inhibitory activity against activated protein C was determined.
Sequence of Vitamin K-dependent protein C (P04070 43-197 limits assumed): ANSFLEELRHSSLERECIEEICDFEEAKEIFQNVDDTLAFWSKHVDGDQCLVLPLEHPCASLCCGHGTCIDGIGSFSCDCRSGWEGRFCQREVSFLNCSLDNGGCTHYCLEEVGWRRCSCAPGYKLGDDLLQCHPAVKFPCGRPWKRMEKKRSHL
Sequence of Vitamin K-dependent protein C (P04070 212-461 limits assumed): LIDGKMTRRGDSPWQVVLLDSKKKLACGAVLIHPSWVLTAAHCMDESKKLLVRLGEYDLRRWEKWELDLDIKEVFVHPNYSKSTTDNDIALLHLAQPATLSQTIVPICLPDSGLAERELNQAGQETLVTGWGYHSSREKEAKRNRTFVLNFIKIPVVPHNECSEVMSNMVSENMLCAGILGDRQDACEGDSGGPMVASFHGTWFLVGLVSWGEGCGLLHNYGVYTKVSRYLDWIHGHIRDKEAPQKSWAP
Data set [10] concerns the target T1, Coagulation factor X. The experiment in a line: In vitro inhibitory activity against human coagulation factor X.
Data set [11] in a line: as §1. The data set is classed as ADME, organism-based. The settings on record: in vivo.
Data set [12] in a line: as §2. The format is ADME, organism-based. The conditions noted are these: in vivo.
Data set [13] can be described thus: as §3. The data set is classed as ADME, organism-based. The settings on record: in vivo.
Data set [14] concerns Oryctolagus cuniculus. Kind of data set: In vivo inhibition of thrombus accretion at a plasma level of 3.7 […] in the rabbit deep vein thrombosis (DVT) model. The data set is classed as functional.
Data set [15] concerns Oryctolagus cuniculus. The experiment in a line: In vivo inhibition of thrombus accretion at a plasma level of 4.5 […] in the rabbit deep vein thrombosis (DVT) model. The format is functional.
In data set [16] the test system is Oryctolagus cuniculus. Kind of data set: In vivo inhibition of thrombus accretion at a plasma level of 4.6 […] in the rabbit deep vein thrombosis (DVT) model. The data set is classed as functional.
The test system of data set [17] is Oryctolagus cuniculus. The experiment in a line: In vivo inhibition of thrombus accretion at a plasma level of 3.9 […] in the rabbit deep vein thrombosis (DVT) model. The format is functional.

Sequence of Serine protease 1 (P07477 whole entry): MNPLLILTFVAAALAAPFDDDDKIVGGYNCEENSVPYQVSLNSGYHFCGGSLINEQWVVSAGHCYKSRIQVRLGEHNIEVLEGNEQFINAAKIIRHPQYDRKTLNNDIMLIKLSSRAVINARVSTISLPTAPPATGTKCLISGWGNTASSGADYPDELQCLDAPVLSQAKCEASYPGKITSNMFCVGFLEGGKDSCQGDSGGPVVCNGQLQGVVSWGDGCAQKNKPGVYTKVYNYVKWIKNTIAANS
Sequence of Plasminogen (Homo sapiens) (P00747 whole entry, looked up): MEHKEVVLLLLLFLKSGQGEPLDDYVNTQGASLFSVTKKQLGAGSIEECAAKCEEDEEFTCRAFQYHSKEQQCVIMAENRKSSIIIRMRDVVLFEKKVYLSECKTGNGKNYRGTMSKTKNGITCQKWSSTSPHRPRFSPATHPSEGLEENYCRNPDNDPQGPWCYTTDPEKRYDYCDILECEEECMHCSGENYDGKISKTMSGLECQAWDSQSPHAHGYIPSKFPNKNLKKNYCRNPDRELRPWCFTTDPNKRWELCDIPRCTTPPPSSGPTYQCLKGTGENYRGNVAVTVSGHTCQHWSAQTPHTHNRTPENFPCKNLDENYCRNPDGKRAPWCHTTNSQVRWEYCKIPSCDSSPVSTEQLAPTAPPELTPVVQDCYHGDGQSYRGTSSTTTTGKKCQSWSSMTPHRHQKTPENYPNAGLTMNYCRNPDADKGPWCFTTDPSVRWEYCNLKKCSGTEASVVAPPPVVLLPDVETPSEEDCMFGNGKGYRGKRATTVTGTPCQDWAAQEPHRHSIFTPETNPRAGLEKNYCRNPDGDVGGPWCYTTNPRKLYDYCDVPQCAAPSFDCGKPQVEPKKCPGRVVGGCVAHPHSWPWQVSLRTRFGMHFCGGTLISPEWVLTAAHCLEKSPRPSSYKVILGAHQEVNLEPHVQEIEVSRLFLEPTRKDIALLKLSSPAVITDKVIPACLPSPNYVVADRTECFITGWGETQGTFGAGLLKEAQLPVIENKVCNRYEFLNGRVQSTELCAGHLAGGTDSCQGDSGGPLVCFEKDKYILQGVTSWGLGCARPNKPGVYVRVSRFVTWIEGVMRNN
T1 sequence (P00742 41-179 limits assumed): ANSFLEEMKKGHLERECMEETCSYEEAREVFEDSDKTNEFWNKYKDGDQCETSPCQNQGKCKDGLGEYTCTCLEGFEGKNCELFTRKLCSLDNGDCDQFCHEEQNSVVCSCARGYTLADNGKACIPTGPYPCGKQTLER
T1 sequence (P00742 235-488 limits assumed): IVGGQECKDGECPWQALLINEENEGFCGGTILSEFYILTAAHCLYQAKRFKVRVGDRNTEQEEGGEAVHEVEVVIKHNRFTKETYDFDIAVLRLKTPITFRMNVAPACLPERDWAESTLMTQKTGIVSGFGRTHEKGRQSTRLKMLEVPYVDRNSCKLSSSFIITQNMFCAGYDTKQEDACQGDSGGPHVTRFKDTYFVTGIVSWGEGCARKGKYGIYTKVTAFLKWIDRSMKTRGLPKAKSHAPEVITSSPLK

Compound `Cc1cc(C(=O)Nc2ccc(C(=N)N(C)C)cc2F)n(-c2cc3ccccc3cc2F)n1` yielded an Activity in data set [1] of 1 µM. Besides, in the data set listed under Rattus norvegicus [2], the CL is 54.3 mL/min/kg. Besides, the half-maximal inhibitory concentration (IC50) (against Serine protease 1; on Prothrombin; at Kallikrein-1; in data set [7]; in data set [8]; in [9]) was above 10000 nM in each case. Affinity at Coagulation factor X [3] was put at a Ki of 3.9 nM. Also, the bioavailability (as a rule, dose-corrected exposure relative to a reference, in per cent) in data set [4] stood at 24.3%. Further, the T1/2 in the data set filed under Rattus norvegicus [5] came out at 3.1 h. Besides, in the data set filed under Rattus norvegicus [6], the Vd – broadly, the apparent volume that relates the amount in the body to the concentration in plasma or blood – is 49.4 L/kg.
Take `CN1CCN=C1c1ccc(NC(=O)c2nnnn2-c2ccc3cc(Cl)ccc3c2)c(F)c1`: at Coagulation factor X [10], the IC50 (commonly the point on the concentration scale where inhibition reaches its midpoint) was 15 nM.
As for `Cc1cc(C(=O)Nc2ccc(C3=NCCN3C)cc2F)n(-c2cc3ccccc3cc2S(C)(=O)=O)n1`, in [1], the Activity was 0.78 µM. In addition, on Coagulation factor X [3], the Ki (in general, the equilibrium dissociation constant of an inhibitor or competing ligand from its target) is 3.9 nM. At Coagulation factor X [10], the IC50 amounted to 14 nM.
Compound `CNC(=N)c1ccc(NC(=O)c2cc(C)nn2-c2cc3ccccc3cc2F)c(F)c1` yielded an IC50 on Coagulation factor X [10] of 114 nM. That is a sub-micromolar value.
On the same count and under the same terms, the same measure for `Cc1cc(C(=O)Nc2ccc(C(=N)N3CCCC3)cc2F)n(-c2ccc3cc(Cl)ccc3c2)n1`: 7 nM; for `N=C(c1ccc(NC(=O)c2cc(C(F)(F)F)nn2-c2cc3ccccc3cc2F)c(F)c1)N1CCCCC1`: 11 nM; for `N=C(c1ccc(NC(=O)c2nnnn2-c2ccc3cc(Cl)ccc3c2)c(F)c1)N1CCCC1`: 7 nM.
Same read-out and setting: the result for `Cc1cc(C(=O)Nc2ccc(C(=N)N3CCOCC3)cc2F)n(-c2cc3ccccc3cc2F)n1` reads 134 nM; that for `CN1CCN=C1c1ccc(NC(=O)c2nnnn2-c2cc3ccccc3cc2F)c(F)c1`, 110 nM.
Still for that read-out and setting: the same measure for `Cc1cc(C(=O)Nc2cccc(C(=N)N(C)C)c2)n(-c2cc3ccccc3cc2F)n1`: 479 nM.
For the compound `Cc1cc(C(=O)Nc2ccc(C(=N)N(C)Cc3ccccc3)cc2F)n(-c2cc3ccccc3cc2F)n1`, the half-inhibitory concentration (IC50) against Coagulation factor X [10] is 80 nM.
Take `CN(C)C(=N)c1ccc(NC(=O)c2nnnn2-c2ccc3cc(Cl)ccc3c2)c(F)c1`: the Activity in [1] is 2.5 µM. For the same compound, at Coagulation factor X [3], the inhibitory constant (Ki) stood at 0.7 nM. At Coagulation factor X [10], the IC50 is 2 nM.
The like results for `Cc1cc(C(=O)Nc2ccc(C3=NCCN3C)cc2F)n(-c2ccc3cc(Cl)ccc3c2)n1` were, in that order, 0.91 µM, 1 nM and 8 nM.
In turn, `Cc1cc(C(=O)Nc2ccc(C(=N)N(C)C)cc2F)n(-c2cc3ccccc3cc2S(C)(=O)=O)n1` yielded an Activity in data set [1] of 0.53 µM. For the same compound, the affinity at Coagulation factor X [3] corresponds to a Ki of 2.8 nM. The compound further came in with an IC50 against Coagulation factor X [10] of 12 nM.
On to `CCN(C)C(=N)c1ccc(NC(=O)c2cc(C)nn2-c2cc3ccccc3cc2F)c(F)c1`, for which inhibition on Coagulation factor X [10] was half-maximal at 22 nM (IC50).
`Cc1cc(C(=O)Nc2ccc(C(=N)N3CCCCC3)cc2F)n(-c2ccc3cc(Cl)ccc3c2)n1` yielded an IC50 on Coagulation factor X [10] of 7 nM.
With `Cc1cc(C(=O)Nc2ccc(C(=N)N3CCC3)cc2F)n(-c2cc3ccccc3cc2F)n1`, the half-maximal inhibitory concentration (IC50) on Coagulation factor X [10] turned out to be 50 nM.
`COCCN(C)C(=N)c1ccc(NC(=O)c2cc(C)nn2-c2cc3ccccc3cc2F)c(F)c1` had an IC50 against Coagulation factor X [10] of 110 nM.
Still for that read-out and setting: the result for `N=C(c1ccc(NC(=O)c2nnnn2-c2cc3ccccc3cc2F)c(F)c1)N1CCCCC1` reads 76 nM; that for `N=C(c1ccc(NC(=O)c2cc(C(F)(F)F)nn2-c2ccc3cc(Cl)ccc3c2)c(F)c1)N1CCCC1`, 2 nM.
Same read-out and setting: the same measure for `Cc1cc(C(=O)Nc2ccc(C(=N)N3CCCCC3)cc2F)n(-c2cc3ccccc3cc2S(C)(=O)=O)n1`: 28 nM.
The same measure, in the same setting: the result for `CCCN(C)C(=N)c1ccc(NC(=O)c2cc(C)nn2-c2cc3ccccc3cc2F)c(F)c1` reads 34 nM; that for `CN(C)C(=N)c1ccc(NC(=O)c2nnnn2-c2cc3ccccc3cc2F)c(F)c1`, 16 nM.
On to `Cc1cc(C(=O)Nc2ccc(C(=N)N3CCCC3)cc2F)n(-c2cc3ccccc3cc2S(C)(=O)=O)n1`, for which, at Coagulation factor X [10], the midpoint of inhibition, the IC50, lay at 15 nM.
On the same count and under the same terms, the same measure for `N=C(c1ccc(NC(=O)c2nnnn2-c2ccc3cc(Cl)ccc3c2)c(F)c1)N1CCCCC1`: 8 nM.
`Cc1cc(C(=O)Nc2ccc(C3=NCCN3C)cc2F)n(-c2cc3ccccc3cc2F)n1`: the Activity in [1] was determined as 1.7 µM. Further, the clearance (as a rule, the volume of plasma or blood freed of the substance per unit of time) in data set [11] worked out at 49.3 mL/min/kg. The compound also gave a Ki on Coagulation factor X [3] of 8 nM. Besides, in [4], the bioavailability stood at 43.9%. Moreover, the half-life (in general, the time in which the quantity being followed falls by half) in data set [12] was 1.8 h. The compound further displayed a Vd in [13] of 7.6 L/kg. On Coagulation factor X [10], this compound came in with an IC50 of 18 nM.
`Cc1cc(C(=O)Nc2ccc(C(=N)N3CCCC3)cc2F)n(-c2cc3ccccc3cc2F)n1`: the Activity in data set [1] is 1.4 µM. The compound also registered a Ki on Coagulation factor X [3] of 4.1 nM. The same compound showed an IC50 against Coagulation factor X [10] of 6 nM.
On Coagulation factor X [10], `N=C(c1ccc(NC(=O)c2nnnn2-c2cc3ccccc3cc2F)c(F)c1)N1CCCC1` registered an IC50 of 24 nM. That is a double-digit nanomolar value.
Still for that read-out and setting: the same measure for `N=C(c1ccc(NC(=O)c2cc(C(F)(F)F)nn2-c2cc3ccccc3cc2F)c(F)c1)N1CCCC1`: 10 nM.
For `Cc1cc(C(=O)Nc2ccc(C(=N)N(C)C)cc2F)n(-c2ccc3cc(Cl)ccc3c2)n1`, in data set [1], the Activity was 0.83 µM. Also, the clearance in data set [11] was determined as 55.9 mL/min/kg. The Inhibition (usually the change of the read-out against control, counted positive when it falls) is listed as 20% with Oryctolagus cuniculus [14] and 56% in the data set on Oryctolagus cuniculus [15]. The IC50 was above 10000 nM at Serine protease 1; above 10000 nM on Prothrombin; above 10000 nM against Kallikrein-1; above 10000 nM in data set [7]; above 10000 nM in [8]; 5 nM at Coagulation factor X [10]. In addition, the IC50 in data set [9] is above 10000 nM. This compound also returned a Ki on Coagulation factor X [3] of 0.7 nM. Besides, in data set [4], the bioavailability came to 13.8%. In data set [12], the half-life was 18 h. The volume of distribution (Vd) in data set [13] was 82.5 L/kg.
`Cc1cc(C(=O)Nc2ccc(C(=N)N3CCCCCC3)cc2F)n(-c2cc3ccccc3cc2F)n1` showed a concentration for half-maximal inhibition (IC50) at Coagulation factor X [10] of 50 nM.
For `Cc1cc(C(=O)Nc2ccc(C(=N)N3CCCCC3)cc2F)n(-c2cc3ccccc3cc2F)n1`, the Activity in data set [1] was determined as 1.5 µM. Moreover, the affinity at Coagulation factor X [3], expressed as Ki, was 5.2 nM. Moreover, the 50% inhibitory concentration (IC50) at Coagulation factor X [10] was determined as 8 nM.
`Cc1cc(C(=O)Nc2cc(C(=N)N(C)C)cs2)n(-c2cc3ccccc3cc2F)n1` displayed a half-inhibitory concentration (IC50) against Coagulation factor X [10] of 377 nM. In other words, the sub-micromolar range.
At Coagulation factor X [10], `N=C(c1ccc(NC(=O)c2cc(C(F)(F)F)nn2-c2ccc3cc(Cl)ccc3c2)c(F)c1)N1CCCCC1` returned a half-maximal inhibitory concentration (IC50) of 4 nM. This IC50 lies about 94-fold lower than the previous one.
On to `Cc1cc(C(=O)Nc2ccc(C(=N)N(C)C)s2)n(-c2cc3ccccc3cc2F)n1`, for which the IC50 on Coagulation factor X [10] is 511 nM.
For the compound `CN(C)C(=N)c1ccc(NC(=O)c2cc(C(F)(F)F)nn2-c2cc3ccccc3cc2F)c(F)c1`, the Activity in [1] came to 1.4 µM. Besides, in [11], the clearance was determined as 14.7 mL/min/kg. Further, the concentration for half-maximal inhibition (IC50) (on Serine protease 1; at Prothrombin; on Kallikrein-1; in data set [7]; in data set [8]; in [9]) was above 10000 nM in each case. Besides, the Inhibition came to 51% with Oryctolagus cuniculus [16] and 20% in the data set with Oryctolagus cuniculus [17]. In data set [4], the bioavailability is 46.9%. The half-life in [12] is 8.8 h. In data set [13], this compound displayed a distribution volume (Vd) of 11 L/kg.
Regarding `Cc1cc(C(=O)Nc2ccc(C(=N)N)cc2F)n(-c2cc3ccccc3cc2F)n1`, at Coagulation factor X [10], the midpoint of inhibition, the IC50, lay at 777 nM.
The same measure, in the same setting: the result for `Cc1cc(C(=O)Nc2ccc(C(=N)N(C)CCN(C)C)cc2F)n(-c2cc3ccccc3cc2F)n1` reads 48 nM.
Consider `CN(C)C(=N)c1ccc(NC(=O)c2cc(C(F)(F)F)nn2-c2ccc3cc(Cl)ccc3c2)c(F)c1`, for which the Activity in data set [1] is 1.8 µM. On Coagulation factor X [3], this compound had an inhibitory constant (Ki) of 0.9 nM. On Coagulation factor X [10], inhibition was half-maximal at 1 nM (IC50).
The like results for `CN1CCN=C1c1ccc(NC(=O)c2cc(C(F)(F)F)nn2-c2ccc3cc(Cl)ccc3c2)c(F)c1` were, in that order, 4.5 µM, 1.2 nM and 2 nM.
